The record followed here is PMC2905049 (Bioorganic & medicinal chemistry, 2010).

Broadly, the IC50 is the concentration that inhibits the measured activity by half. Lower therefore signals greater potency. A word on the EC50: it is the concentration at which the effect is half-maximal.

Assay [1] concerns MT-2 cell line. The assay is described as follows: Compound toxicity by XTT in mock-infected MT-2 cells. It counts as cell-based. To be noted: Homo sapiens, MT2. (Tetrazolium assays rely on reduction of a dye to a coloured formazan, in cell work by metabolically active cells.)
For assay [2], the system named is HIV-1IIIB. The assay is described as follows: Anti-HIV replication assay against wild-type HIV-1IIIB in MT-2 cell line. It counts as cell-based. To be noted: for EC50 (μM): HIV-1IIIB replication in MT-2 cell line; for EC50: Human immunodeficiency virus 1, MT2.
Assay [3] concerns HIV-1NL4-3. The experiment in a line: Anti-HIV replication assay against HIV-1NL4-3 in MT-4 cell line. The format is cell-based. Conditions: for EC50: Human immunodeficiency virus 1, MT4, read-out: HIV-1NL4-3 EC50 (μM); for EC50 (μM): HIV-1NL4-3, MT-4 cell line, Table 3 screening, 9 as control.
Assay [4] relates to RTMDR (multi-RT inhibitor-resistant strain). The assay is described as follows: Anti-HIV replication assay against RTMDR strain in MT-4 cell line. It counts as cell-based, HIV-1. Conditions: Human immunodeficiency virus 1, MT4, read-out: RTMDR EC50 (μM).

Molecules are shown by their SMILES.

As for `Cc1cn([C@H]2C[C@H](N=[N+]=[N-])[C@@H](CO)O2)c(=O)[nH]c1=O` [AZT, zidovudine, reference compound], in assay [1], half-maximal inhibition (IC50) required 1870 µM. In assay [2] (therapeutic index IC50/EC50, HIV-1IIIB, MT-2, Table 1), the TI was determined as 42700.
Regarding `CCc1cc(=O)c2ccc3c(c2o1)[C@@H](OC(=O)[C@@]12CC[C@@](C)(C(=O)O1)C2(C)C)[C@@H](OC(=O)[C@@]12CC[C@@](C)(C(=O)O1)C2(C)C)C(C)(C)O3` [Compound 3, reference compound], the “HIV-1NL4-3 TI” value in assay [3] (therapeutic index IC50/EC50, MT-4, Table 2 screening) is recorded as 116.
Take `CC(=O)c1ccc2c(c1C)[C@@H](OC(=O)[C@@]13CC[C@@](C)(C(=O)O1)C3(C)C)[C@@H](OC(=O)[C@@]13CC[C@@](C)(C(=O)O1)C3(C)C)C(C)(C)O2` [Compound 4, 3R,4R-Dicamphanoyloxy-2,2,5-trimethyl-6-acetyl-2H-chroman]: in assay [2] (Table 1), the “EC50 (μM)” value is recorded as “did not show anti-HIV activity”. This molecule also registered an EC50 in assay [2] of over 20 µM.
As to `CCOc1c(C(C)=O)ccc2c1[C@@H](OC(=O)[C@@]13CC[C@@](C)(C(=O)O1)C3(C)C)[C@@H](OC(=O)[C@@]13CC[C@@](C)(C(=O)O1)C3(C)C)C(C)(C)O2` [Compound 5], the “EC50 (μM)” value in assay [2] (Table 1) is recorded as “moderate activity”.
Take `Cc1cc(=O)oc2cc(OC(C)(C)[C@@H](COC(=O)[C@@]34CC[C@@](C)(C(=O)O3)C4(C)C)OC(=O)[C@@]34CC[C@@](C)(C(=O)O3)C4(C)C)ccc12` [Compound 6, 7-(2R,3-Di-O-(−)-camphanoyloxy-1,1-dimethylpropoxy)-4-methyl-2H-chromen-2-one]: the EC50 in assay [4], in assay [3] and in assay [2] was over 20 µM throughout.
Regarding `Cc1cc(=O)oc2c([C@H](COC(=O)[C@@]34CC[C@@](C)(C(=O)O3)C4(C)C)OC(=O)[C@@]34CC[C@@](C)(C(=O)O3)C4(C)C)c(OC(C)C)ccc12` [Compound 7, 8-(1R,2-Di-O-(−)-camphanoyloxyethyl)-7-isopropoxy-4-methyl-2H-chromen-2-one], the EC50 in assay [4], in assay [3] and in assay [2] was over 20 µM each time.
Consider `Cc1cc(=O)oc2c([C@H](C)OC(=O)[C@@]34CC[C@@](C)(C(=O)O3)C4(C)C)c(OC(C)C)ccc12` [Compound 8], for which the EC50 in assay [4], in assay [3] and in assay [2] was over 20 µM each time. Also, the “EC50 (μM)” value in assay [2] (Table 1) was “lost anti-HIV activity completely”.
On to `Cc1cc(=O)oc2c(CSC(=O)[C@@]34CC[C@@](C)(C(=O)O3)C4(C)C)c(OC(C)C)ccc12` [Compound 13], for which the “EC50 (μM)” value in assay [3] was “moderate activity”.
`COc1ccc(N(Cc2c(OC(C)C)ccc3c(C)cc(=O)oc23)C(=O)[C@@]23CC[C@@](C)(C(=O)O2)C3(C)C)cc1` [Compound 16, 8-[(N-4-Methoxyphenyl-N-(−)-camphanoyl)aminomethyl]-7-isopropoxy-4-methyl-2H-chromen-2-one]: the “EC50 (μM)” value in assay [3] is given as “moderate activity”.
